pKi: −log10 of the molar value.
Key:
[1] = biological target: serotonin 2 receptor (Rattus norvegicus, UniProt P14842); assay: Binding test on [3H] ketanserin (serotonin 2 receptor); details: [3H] ketanserin 0.3 nM, receptor fraction of rat cerebral cortex; read-out: 5HT2
[2] = biological target: T1, serotonin 1A receptor (Rattus norvegicus, UniProt P19327); assay: Binding test on [3H] 8-hydroxy-dipropylaminotetralin (serotonin 1A receptor); details: [3H] 8-OH-DPAT 0.5 nM, receptor fraction of rat hippocampus; read-out: 5HT1a
T1 construct: To the receptor fraction of the hippocampus were added a test compound and 0.5 nM of [^3H]; 8-hydroxy-dipropylaminotetralin; from tissue; host or cells: SD rat hippocampus, membrane (receptor) fraction
T1 sequence (P19327 1-422): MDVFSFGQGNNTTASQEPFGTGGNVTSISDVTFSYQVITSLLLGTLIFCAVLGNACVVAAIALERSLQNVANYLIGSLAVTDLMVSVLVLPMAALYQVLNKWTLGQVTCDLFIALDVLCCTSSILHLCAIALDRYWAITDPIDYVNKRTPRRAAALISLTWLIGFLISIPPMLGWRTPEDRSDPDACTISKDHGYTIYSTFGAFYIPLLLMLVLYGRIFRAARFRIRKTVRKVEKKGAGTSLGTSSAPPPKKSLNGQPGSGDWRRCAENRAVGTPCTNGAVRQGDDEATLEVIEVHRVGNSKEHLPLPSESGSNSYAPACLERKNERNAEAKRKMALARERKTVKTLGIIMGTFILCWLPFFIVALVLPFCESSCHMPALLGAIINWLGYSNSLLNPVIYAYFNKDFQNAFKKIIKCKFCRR

serotonin 2 receptor, sequence (P14842 whole entry): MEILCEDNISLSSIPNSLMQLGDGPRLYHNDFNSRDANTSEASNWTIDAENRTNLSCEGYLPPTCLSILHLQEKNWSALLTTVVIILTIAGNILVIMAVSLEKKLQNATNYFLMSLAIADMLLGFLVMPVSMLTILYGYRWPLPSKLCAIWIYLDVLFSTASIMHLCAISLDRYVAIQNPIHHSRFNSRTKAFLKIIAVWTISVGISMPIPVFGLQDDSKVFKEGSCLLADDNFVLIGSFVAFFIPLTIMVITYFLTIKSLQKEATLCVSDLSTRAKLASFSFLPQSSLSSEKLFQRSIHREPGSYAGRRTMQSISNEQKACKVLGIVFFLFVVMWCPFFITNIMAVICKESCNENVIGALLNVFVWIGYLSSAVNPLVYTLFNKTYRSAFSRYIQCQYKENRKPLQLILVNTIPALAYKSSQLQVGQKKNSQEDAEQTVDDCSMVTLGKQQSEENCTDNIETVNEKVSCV

Row | pKi [1] | pKi [2] | SMILES
1 | 9.92 | 9.89 | COc1ccc(CCN2CCC(N3CCc4ccccc43)CC2)cc1 [Example 18, 1-[1-(4-methoxyphenethyl)piperidin-4-yl]indoline]
2 | 8.57 | 9.09 | O=C1CNC(=O)N1Cc1ccc2c(c1)N(C1CCN(CCc3ccc(F)cc3)CC1)CC2 [Example 207, 1-[1-(4-fluorophenethyl)piperidin-4-yl]-6-(2,4-imidazolidinedion-3-yl)methylindoline]
3 | 8.23 | 8.70 | CCC(O)c1ccc2c(c1)N(C1CCN(CCc3ccc(F)cc3)CC1)CC2 (stereo not shown) [Example 138, 1-[1-(4-fluorophenethyl)piperidin-4-yl]-6-(1-hydroxypropyl)indoline]
4 | 7.52 | 8.01 | Fc1ccc(OCCCN2CCC(N3CCc4ccccc43)CC2)cc1 [Example 69, 1-{1-[3-(4-fluorophenoxy)propyl]piperidin-4-yl}indoline]
5 | 7.84 | 9.30 | CS(=O)(=O)Nc1ccc2c(c1)N(C1CCN(CCc3ccc(F)cc3)CC1)CC2 [Example 116, 1-[1-(4-fluorophenethyl)piperidin-4-yl]-6-methanesulfonylaminoindoline]
6 | 7.89 | 8.89 | Fc1ccc(CCN2CCC(N3CCc4cccnc43)CC2)cc1 [Example 260, 1-[1-(4-fluorophenethyl)piperidin-4-yl]-7-azaindoline]
7 | 7.04 | 9.66 | CCN1CCN([C@@H]2c3cc(OC)ccc3CC[C@H]2Oc2ccc(C(F)(F)F)cc2)CC1 (relative stereo) [Example 279, trans-1-(4-ethylpiperazin-1-yl)-7-methoxy-2-(4-trifluoromethylphenoxy)-1,2,3,4-tetrahydronaphthalene]
8 | 8.62 | 8.72 | CS(=O)(=O)Nc1ccc2c(c1)N(C1CCN(CCc3ccc(F)cc3F)CC1)CC2 [Example 221, 1-[1-(2,4-difluorophenethyl)piperidin-4-yl]-6-methanesulfonylaminoindoline]
9 | 7.65 | 7.50 | CC1CC(C2CCN(CCc3ccc(F)cc3)CC2)c2nccnc21 (mixture of isomers) [Example 266, 5-[1-(4-fluorophenethyl)piperidin-4-yl]-7-methyl-5,6-dihydro-5H-cyclopentapyrazine]
10 | 7.80 | < 6.70 | OC1(C2CCc3cccnc32)CCN(CCc2ccc(F)cc2)CC1 (stereo not shown) [Example 255, 7-[4-hydroxy-1-(4-fluorophenethyl)piperidin-4-yl]-5,6-dihydro-7H-pyrindine]
11 | 7.86 | 7.79 | CCN1CCC(Cc2ccc3c(c2)N(C2CCN(CCc4ccc(F)cc4)CC2)CC3)CC1 [Example 169, 1-[1-(4-fluorophenethyl)piperidin-4-yl]-6-[(1-ethylpiperidin-4-yl)methyl]indoline]
12 | 9.12 | 8.25 | O=C(NCc1ccc2c(c1)N(C1CCN(CCc3ccc(F)cc3)CC1)CC2)C1CC1 [Example 159, 1-[1-(4-fluorophenethyl)piperidin-4-yl]-6-cyclopropanecarboxamindomethylindoline]
13 | 9.05 | 8.46 | Fc1ccc(CCN2CCC(N3CCc4ccc(Cc5nccs5)cc43)CC2)cc1 [Example 214, 1-[1-(4-fluorophenethyl)-piperidin-4-yl]-6-(2-thiazolyl)methylindoline]
14 | 9.00 | 6.90 | COc1ccc(CC2CN(C3CCN(CCc4ccc(F)cc4)CC3)c3ccccc32)cc1 (stereo not shown) [Example 215, 1-[1-(4-fluorophenethyl)piperidin-4-yl]-3-(4-methoxybenzyl)indoline]
15 | 9.92 | 8.56 | O=C1CCCC(=O)N1Cc1ccc2c(c1)N(C1CCN(CCc3ccc(F)cc3)CC1)CC2 [Example 205, 1-[1-(4-fluorophenethyl)piperidin-4-yl]-6-(glutarimido-1-yl)methylindoline]
16 | 7.60 | 8.22 | Brc1ccc(CCN2CCC(N3CCc4ccccc43)CC2)cc1 [Example 4, 1-[1-(4-bromophenethyl)piperidin-4-yl]indoline]
17 | 8.30 | 7.70 | CC(C)NC(=O)Cc1ccc(CCN2CCC(N3CCc4ccccc43)CC2)cc1 [Example 41, 1-[1-(4-N-isopropylcarbamoylmethylphenethyl)piperidin-4-yl]indoline]
18 | 9.74 | 8.99 | Fc1ccc(CCN2CCC(N3CCc4ccc(Cn5cncn5)cc43)CC2)cc1 [Example 213, 1-[1-(4-fluorophenethyl)piperidin-4-yl]-6-(1,2,4-triazol-2-yl)methylindoline]

Row | pKi [1] | pKi [2] | SMILES
19 | 8.38 | 8.96 | c1ccc2c(c1)CCN2C1CCN(CCc2ccc3c(c2)OCO3)CC1 [Example 46, 1-{1-[3,4-(methylenedioxy)phenethyl]piperidin-4-yl}indoline]
20 | 8.91 | 8.26 | CC(=O)NC(C)c1ccc2c(c1)N(C1CCN(CCc3ccc(F)cc3)CC1)CC2 (stereo not shown) [Example 165, 1-[1-(4-fluorophenethyl)piperidin-4-yl]-6-(1-acetamidoethyl)indoline]
21 | 7.55 | 8.57 | Fc1ccc(CCN2CCC(N3CCc4ccc(Cl)cc43)CC2)cc1 [Example 102, 1-[1-(4-fluorophenethyl)piperidin-4-yl]-6-chloroindoline]
22 | 7.73 | 8.19 | Fc1ccc(CCN2CCC(N3CCc4ccc(CC5CCNCC5)cc43)CC2)cc1 [Example 167, 1-[1-(4-fluorophenethyl)piperidin-4-yl]-6-[(piperidin-4-yl)methyl]indoline]
23 | 8.92 | 8.49 | c1ccc2c(c1)CCN2C1CCN(CCc2ccc3ncsc3c2)CC1 [Example 63, 1-{1-[2-(6-benzothiazolyl)ethyl]piperidin-4-yl}indoline]
24 | 8.73 | 9.62 | OC(c1ccc2c(c1)N(C1CCN(CCc3ccc(F)cc3)CC1)CC2)c1ccccn1 (stereo not shown) [Example 174, 1-[1-(4-fluorophenethyl)piperidin-4-yl]-6-[1-hydroxy-1-(2-pyridyl)methyl]indoline]
25 | 8.09 | 7.33 | CS(=O)(=O)c1ccc(CCN2CCC(N3CCc4ccccc43)CC2)cc1 [Example 28, 1-[1-(4-methanesulfonylphenethyl)piperidin-4-yl]indoline]
26 | 7.46 | 7.82 | COc1ccc(S(=O)(=O)NCCN2CCC(N3CCc4ccccc43)CC2)cc1 [Example 48, 1-{1-[2-(4-methoxyphenylsulfonylamino)ethyl]piperidin-4-yl}indoline]
27 | 8.06 | 8.64 | CC(C)(O)c1ccc2c(c1)N(C1CCN(CCc3ccc(F)cc3)CC1)CC2 [Example 139, 1-[1-(4-fluorophenethyl)piperidin-4-yl]-6-(1-hydroxy-1-methylethyl)indoline]
28 | 7.79 | 8.07 | Fc1cc(F)cc(CCN2CCC(N3CCc4ccccc43)CC2)c1 [Example 12, 1-[1-(3,5-difluorophenethyl)piperidin-4-yl]indoline]
29 | 9.57 | 7.79 | CC(C)CNC(=O)Cc1ccc2c(c1)N(C1CCN(CCc3ccc(F)cc3)CC1)CC2 [Example 152, 1-[1-(4-fluorophenethyl)piperidin-4-yl]-6-(isobutylcarbamoylmethyl)indoline]
30 | 8.22 | 8.09 | Fc1ccc(CCN2CCC(N3CCc4ccccc43)CC2)c(F)c1 [Example 10, 1-[1-(2,4-difluorophenethyl)piperidin-4-yl]indoline]
31 |  | 8.19 | O=C(Cc1ccc2c(c1)N(C1CCN(CCc3ccc(F)cc3)CC1)CC2)NC1CC1 [Example 154, 1-[1-(4-fluorophenethyl)piperidin-4-yl]-6-(cyclopropylcarbamoylmethyl)indoline]
32 | 9.49 | 7.54 | CN(C)c1ccc(C(O)c2ccc3c(c2)N(C2CCN(CCc4ccc(F)cc4)CC2)CC3)cn1 (stereo not shown) [Example 191, 1-[1-(4-fluorophenethyl)piperidin-4-yl]-6-[1-hydroxy-1-(2-dimethylaminopyridin-5-yl)methyl]indoline]
33 | 8.28 | 8.82 | Fc1ccc(CCN2CCC(N3CCc4ccc(F)nc43)CC2)cc1 [Example 261, 1-[1-(4-fluorophenethyl)piperidin-4-yl]-6-fluoro-7-azaindoline]
34 | 8.19 | 7.82 | OCc1ccc(CCN2CCC(N3CCc4ccccc43)CC2)cc1CO [Example 45, 1-{1-[3,4-di(hydroxymethyl)phenethyl]piperidin-4-yl}indoline]
35 |  | 7.35 | OC[C@@H]1CN(CCc2ccc(F)cc2)CC[C@@H]1N1CCc2ccccc21 (relative stereo) [Example 81, cis-1-[1-(4-fluorophenethyl)-3-hydroxymethylpiperidin-4-yl]indoline]
36 | 8.06 |  | COc1ccc2c(c1)CCN2C1CCN(CCc2ccc(F)cc2)CC1 [Example 99, 1-[1-(4-fluorophenethyl)piperidin-4-yl]-5-methoxyindoline]

Row | SMILES | pKi [1] | pKi [2]
37 | COc1ccc2c(c1)N(C1CCN(CCc3ccc(S(N)(=O)=O)cc3)CC1)CC2 [Example 230, 1-[1-(4-sulfamoylphenethyl)piperidin-4-yl]-6-methoxyindoline] | < 6.70 | 7.88
38 | c1ccc(CCN2CCC(N3CCc4ccccc43)CC2)cc1 [Example 3, 1-(1-phenethylpiperidin-4-yl)indoline] | 7.76 | 7.54

— patent publication US6579881B2 (Eisai Co., Ltd., priority 1997, dated 2003)
